Earlier results, collected in patent publication US6013636A, “Anthelmintic macrocyclic lactone compositions” (Ashmont Holdings Limited, priority 1995, dated 2000).

How the values were obtained:
[1] = sesame oil, soya bean oil and corn oil

Compound | Stability in water | Solubility in oils [1]
ivermectin | oxidise and break down in water | sparingly soluble
CO/N=C1\C[C@]2(C[C@@H]3C[C@@H](C/C=C(\C)C[C@@H](C)/C=C/C=C4\CO[C@@H]5[C@H](O)C(C)=C[C@@H](C(=O)O3)[C@]45O)O2)O[C@H](/C(C)=C/C(C)C)[C@H]1C [moxidectin] | oxidise and break down in water | sparingly soluble
CO[C@H]1C[C@H](O[C@H]2[C@H](C)O[C@@H](O[C@@H]3/C(C)=C/C[C@@H]4C[C@@H](C[C@]5(C=C[C@H](C)[C@@H](C6CCCCC6)O5)O4)OC(=O)[C@@H]4C=C(C)[C@@H](O)[C@H]5OC/C(=C\C=C\[C@@H]3C)[C@]54O)C[C@@H]2OC)O[C@@H](C)[C@@H]1O [doramectin] | oxidise and break down in water | sparingly soluble
